Results from publication PMC4021201, “Repositioning: the fast track to new anti-malarial medicines?” (Malaria Journal, 2014).
Like-named read-outs stand apart in the source and are kept apart here. Values belong to the molecule of their own block, whether it stands above or below them. Starred links: 1 amine or outer side, 2 acyl side, 3 side chain; linkers in the order of their positions; H or OH if unused. Positions of bridges follow the written chain, without caps; N, C: chain ends. Non-standard residues stand in square brackets, D forms with d. Residues, ends and D or L forms follow the SMILES beside them. Chains are numbered I, II in the order given. Actinocin(9to1) = Cc1c2oc3c(C)ccc(C(=O)[*:1])c3nc-2c(C(=O)[*:2])c(N)c1=O; NMeV = CN[C@H](C(=O)O)C(C)C; Sar = CNCC(=O)O

Assays:
[1] = system: P. falciparum 3D7; assay: SYBR I dye DNA staining assay (SJCRH), P. falciparum 3D7; settings: read-out: EC50 3D7
Procedure: (§1) SJCRH used the SYBR® I dye DNA staining assay, which measures proliferation of P. falciparum in human erythrocytes [27]. Plasmodium falciparum strains 3D7 (chloroquine-sensitive) and K1 (chloroquine-resistant) (American Type Culture Collection [ATCC], Manassas, VA, USA) were maintained using established methods [28]. The assay method is as previously described [29]. […] EC50 values were calculated with the robust investigation of screening experiments (RISE) algorithm with a four-parameter logistic equation.
(§2) This group used the SYBR® I dye DNA staining assay, which measures proliferation of P. falciparum in human erythrocytes [1]. Plasmodium falciparum strains 3D7 (chloroquine-sensitive) and K1 (chloroquine-resistant) (American Type Culture Collection [ATCC], Manassas, VA) were maintained in group O? erythrocytes (Key Biologics, LLC, Memphis, TN) using established methods [2]. Serial dilutions of the test compound in DMSO were prepared to provide 10 concentrations for each compound. […] After addition of 10 µL mixed DNA dye solution in PBS per test well (10× SYBR® I, [Invitrogen, Carlsbad, CA]), 0.5% [vol/vol] Triton X-100, 0.5 mg/mL saponin), plates were shaken for 1 min at 750 rpm and incubated in the dark for 90 min. Fluorescence was measured with an EnVision®spectrophotometer (PerkinElmer, Waltham, MA) [3]. […] EC50 values were calculated with the robust investigation of screening experiments (RISE) algorithm with a four-parameter logistic equation.

[2] = system: P. falciparum K1; assay: SYBR I dye DNA staining assay (SJCRH), P. falciparum K1; settings: read-out: EC50 K1
Procedure: as §1, §2

[3] = system: P. falciparum Pf3D7^0087/N9; assay: Plasmodium falciparum huSCID humanized mouse model, four-day test; settings: for reduction of parasitaemia versus vehicle: 10, 30 mg/kg sc target doses, up to maximum tolerated dose; for ED90: parasitaemia at day 7 after infection, once daily for four days, mean (95% CI)
Procedure: In vivo testing using this model was performed by GSK at Tres Cantos, against P. falciparum 3D7 (in vivo strain Pf3D7^0087/N9generated by GSK using Pf3D7 obtained from Eduardo Dei-Cas, Institute Pasteur, Lille, France [36]) growing in peripheral blood of female NOD-scid IL-2Rγ^null mice engrafted with human erythrocytes, i e, a ‘humanized’ mouse model, following published protocols [36, 37]. Briefly, animals were infected intravenously with 20×10^6 infected erythrocytes on day 0. […] Dosing was initiated at the maximum tolerated dose in mice on day 3 after infection and continued once daily for four days. Each experimental group was n = 3 mice unless otherwise stated. Control animals received vehicle only and a quality control assay used chloroquine at target doses of 3 mg/kg and 7 mg/kg. Venous blood samples for parasitology (2 μL) were taken at days 3, 5, and 7 after infection. Anti-malarial efficacy was assessed using a standard four-day test (i e, at day 7) and blood parasitaemia was measured by fluorescence-activated cell sorting (FACS) analysis [38]. The limit of detection (per cent of P. falciparum) was 0.01%. The number of parasites ×10^6 cells was recorded and data were analysed by non-linear fitting to a logistic equation of log10 (per cent parasitaemia at day 7 after infection) versus the dose level administered.
Per cent parasitaemia at day 7 after infection in treated versus control animals was analysed using a one factor ANOVA with Tukey’s post-test analysis. […] ED90 was calculated similarly. Analysis was performed using WinNonlin 5.2 and GraphPad Prism 5.0.

[4] = Pharmacokinetics in P. falciparum-infected humanized mice; settings: for Cmax / Tmax: NOD-scid IL-2Rγ^null, mouse; for Cmax / Tmax / AUC (0–t): whole blood; for DNAUC(0–t): dose-normalized AUC(0–t); for DNAUC(0–t) / AUC (0–t): mean (SD)
Procedure: The pharmacokinetics of compounds after oral administration was determined concurrently in the same mice used for the therapeutic efficacy assay. Samples were taken at 0.25, 0.5, 1, 3, 6, 8, and 24 hours after the first dose. Compound levels were measured in 25 μL blood samples that were mixed with 25 μL of saponin (0.1% in water) and processed under standard liquid–liquid extraction conditions [39]. Pharmacokinetic parameters were calculated using WinNonlin 5.2 non-compartmental analysis.

[5] = system: P. falciparum 3D7A strain; assay: Whole-cell [3H] hypoxanthine incorporation assay (GSK); type: cell-based, Plasmodium falciparum; settings: mean of three independent measures
Procedure: GSK Tres Cantos used a whole-cell [^3H] hypoxanthine radioisotope incorporation assay to determine per cent parasite inhibition at 48 hours and 96 hours. Plasmodium falciparum 3D7A strain (Malaria Research and Reference Reagent Resource Center MR4; [32]) was maintained as described previously. Parasite growth inhibition assays and EC50 determination were carried out following standard methods. Three independent experiments were conducted for each time duration and test compound.
GlaxoSmithKline, Tres Cantos. A whole-cell [^3H]hypoxanthine radioisotope incorporation assay was performed to determine percent parasite inhibition at 48 h and 96 h. Plasmodium falciparum 3D7A strain (Malaria Research and Reference Reagent Resource Center MR4; http://www.mr4.org), was maintained in human erythrocytes (Transfusions Blood Bank, Madrid) with Albumax II medium, as previously described. Parasite growth inhibition assays and EC50 determination were carried out following standard methods. Briefly, cultures with 0.5% parasitemia and 2.5% hematocrit were incubated with the 2 μM of test drug for 48 h or 96 h. [^3H]hypoxanthine (0.8 μCi/mL) in 10 μL of RPMI was added 24 h before parasites were harvested (Cell Harvester 96™, TOMTEC, Hamden, CT). Incorporated radioactivity was quantified with a Wallac MicroBeta® TriLux (Model 1450 LS, PerkinElmer). Three independent experiments were conducted for each time duration and test compound.

[6] = Plasmodium falciparum, 3D7, 72 h
[7] = Plasmodium falciparum, K1, 72 h
[8] = target dose 10 mg/kg subcutaneous (experimental 6.4 CEP-701, 8.3 CEP-1347)
[9] = target dose 30 mg/kg subcutaneous (experimental 15.0 CEP-701, 22.0 CEP-1347)
[10] = mean (95% CI), SYBR I fluorescence assay, chloroquine-sensitive strain, 72 h
[11] = mean (95% CI), SYBR I fluorescence assay, chloroquine-resistant strain, 72 h
[12] = target dose 50 mg/kg oral (experimental 36 mg/kg)

SMILES: Nc1nc(N)c2nc(CNc3ccc(C(=O)N[C@@H](CCC(=O)O)C(=O)O)cc3)cnc2n1 [Aminopterin]
- EC50 [1, 6]: 0.32 µM
- EC50 [2, 7]: 1.25 µM

SMILES: CC(C)C[C@H](NC(=O)[C@H](Cc1ccccc1)NC(=O)c1cnccn1)B(O)O [Bortezomib]
- EC50 [1, 6]: 0.02 µM
- EC50 [2, 7]: 0.08 µM

SMILES: CCSCc1ccc2c(c1)c1c3c(c4c5cc(CSCC)ccc5n5c4c1n2[C@H]1C[C@](O)(C(=O)OC)[C@]5(C)O1)CNC3=O [CEP-1347]
- reduction of parasitaemia versus vehicle [3]: did not reach statistical significance
- Cmax ([4]; sc, 10 mg/kg): 0.83 µg/mL
- Tmax ([4]; sc, 10 mg/kg): 4.8 h
- Cmax ([4]; sc, 30 mg/kg): 0.73 µg/mL
- Tmax ([4]; sc, 30 mg/kg): 6 h
- DNAUC(0–t) [4, 8]: 0.98 (0.22) μg · h · mL^−1 · day^−1
- DNAUC(0–t) [4, 9]: 0.45 (0.092) μg · h · mL^−1 · day^−1
- AUC (0–t) [4, 8]: 8.1 (1.8) μg · h · mL
- AUC (0–t) [4, 9]: 9.9 (2.1) μg · h · mL

SMILES: CC(=O)[C@@]1(O)CC[C@H]2[C@@H]3C=C(Cl)C4=CC(=O)[C@@H]5C[C@@H]5[C@]4(C)[C@H]3CC[C@@]21C [Cyproterone]
- EC50 [1, 10]: 0.56 µM
- EC50 [2, 11]: 0.89 µM

SMILES: Cc1c2oc3c(C)ccc(C(=O)N[C@@H]4C(=O)N[C@H](C(C)C)C(=O)N5CCC[C@H]5C(=O)N(C)CC(=O)N(C)[C@@H](C(C)C)C(=O)O[C@@H]4C)c3nc-2c(C(=O)N[C@@H]2C(=O)N[C@H](C(C)C)C(=O)N3CCC[C@H]3C(=O)N(C)CC(=O)N(C)[C@@H](C(C)C)C(=O)O[C@@H]2C)c(N)c1=O [Dactinomycin] (I: T[dV]P[Sar][NMeV] / II: T[dV]P[Sar][NMeV]; ester I:1-I:C, II:1-II:C; linker I:N-II:N via Actinocin(9to1))
- EC50 [1, 6]: 0.0009 µM
- EC50 [2, 7]: 0.001 µM

SMILES: CN(CCCCCCCCCCN(C)C(=O)Oc1cccc([N+](C)(C)C)c1)C(=O)Oc1cccc([N+](C)(C)C)c1 [Demecarium]
- EC50 [1, 6]: 0.51 µM
- EC50 [2, 7]: 0.3 µM

SMILES: C[C@]12O[C@H](C[C@]1(O)CO)n1c3ccccc3c3c4c(c5c6ccccc6n2c5c31)CNC4=O [Lestaurtinib]
- reduction of parasitaemia versus vehicle [3]: did not reach statistical significance
- EC50 [1, 6]: 0.49 µM
- EC50 [2, 7]: 0.34 µM
- Cmax ([4]; sc, 10 mg/kg): 0.63 µg/mL
- Tmax ([4]; sc, 10 mg/kg): 0.78 h
- Cmax ([4]; sc, 30 mg/kg): 2.8 µg/mL
- Tmax ([4]; sc, 30 mg/kg): 4 h
- DNAUC(0–t) [4, 8]: 0.44 (0.072) μg · h · mL^−1 · day^−1
- DNAUC(0–t) [4, 9]: 1.6 (0.47) μg · h · mL^−1 · day^−1
- AUC (0–t) [4, 8]: 2.8 (0.46) μg · h · mL
- AUC (0–t) [4, 9]: 23.8 (6.8) μg · h · mL

SMILES: CO[C@@]12[C@H](COC(N)=O)C3=C(C(=O)C(C)=C(N)C3=O)N1C[C@@H]1N[C@@H]12 [Mitomycin]
- EC50 [1, 6]: 0.97 µM
- EC50 [2, 7]: 0.51 µM

SMILES: C/C=C/C[C@@H](C)C(=O)[C@H]1C(=O)N[C@@H](C(C)C)C(=O)N(C)CC(=O)N(C)[C@@H](CC(C)C)C(=O)N[C@@H](C(C)C)C(=O)N(C)[C@@H](CC(C)C)C(=O)N[C@@H](C)C(=O)N[C@H](C)C(=O)N(C)[C@@H](CC(C)C)C(=O)N(C)[C@@H](CC(C)C)C(=O)N(C)[C@@H](C(C)C)C(=O)N1C [PSC-833, valspodar]
- AUCED90 ([3]; blood exposure needed to inhibit parasitaemia at day 7 by 90% vs vehicle): >17.33 μg · h · mL^−1 · day^−1
- ED90 [3]: >200 mg/kg
- ED90 ([3]; listed as Valspodar): > 200 mg/kg
- Cmax ([4]; po, 50 mg/kg): 1.39 µg/mL
- Tmax ([4]; po, 50 mg/kg): 3.3 h
- Cmax ([4]; po, 100 mg/kg): 1.01 µg/mL
- Tmax ([4]; po, 100 mg/kg): 5.33 h
- Cmax ([4]; po, 200 mg/kg): 0.91 µg/mL
- Tmax ([4]; po, 200 mg/kg): 2 h
- DNAUC(0–t) [4, 12]: 0.36 (0.082) μg · h · mL^−1 · day^−1
- DNAUC(0–t) ([4]; target dose 100 mg/kg oral): 0.13 (0.04) μg · h · mL^−1 · day^−1
- DNAUC(0–t) ([4]; target dose 200 mg/kg oral): 0.065 (0.03) μg · h · mL^−1 · day^−1
- AUC (0–t) [4, 12]: 12.90 (2.97) μg · h · mL
- AUC (0–t) ([4]; target dose 100 mg/kg oral): 12.26 (4.25) μg · h · mL
- AUC (0–t) ([4]; target dose 200 mg/kg oral): 13.05 (6.05) μg · h · mL

SMILES: N=C(N)c1ccc(OCCCCCOc2ccc(C(=N)N)cc2)cc1 [Pentamidine]
- EC50 [1, 6]: 0.22 µM
- EC50 [2, 7]: 0.05 µM

SMILES: CC[C@H](C)C(=O)O[C@H]1C[C@H](O)C=C2C=C[C@H](C)[C@H](CC[C@@H](O)C[C@@H](O)CC(=O)O)[C@H]21 [Pravastatin]
- EC50 [1, 6]: 0.75 µM
- EC50 [2, 7]: 0.12 µM

SMILES: CCCNCC(O)COc1ccccc1C(=O)CCc1ccccc1 (stereo not shown) [Propafenone]
- EC50 [1, 6]: 1.22 µM
- EC50 [2, 7]: 0.33 µM

SMILES: Cc1ccnc(NS(=O)(=O)c2ccc(N)cc2)n1 [Sulfamerazine]
- EC50 [1, 6]: 0.01 µM
- EC50 [2, 7]: 0.01 µM

Results, then the molecule that gave them:

- EC50 [1, 6]: 0.22 µM
- EC50 [2, 7]: 0.65 µM
SMILES: COc1cc(Nc2c(C#N)cnc3cc(OCCCN4CCN(C)CC4)c(OC)cc23)c(Cl)cc1Cl [Bosutinib]

- EC50 [1, 6]: 0.06 µM
- EC50 [2, 7]: 0.06 µM
SMILES: Cc1cc(N)c2ccccc2[n+]1CCCCCCCCCC[n+]1c(C)cc(N)c2ccccc21 [Dequalinium]

- EC50 [1, 10]: 0.84 µM
- EC50 [2, 11]: 0.5 µM
SMILES: Cc1c(N(C)CS(=O)(=O)O)c(=O)n(-c2ccccc2)n1C [Dipyrone]

- EC50 [1, 6]: 0.21 µM
- EC50 [2, 7]: 0.2 µM
SMILES: COc1cccc2c1C(=O)c1c(O)c3c(c(O)c1C2=O)C[C@@](O)(C(=O)CO)C[C@@H]3O[C@H]1C[C@H](N)[C@H](O)[C@H](C)O1 [Doxorubicin]

- EC50 [1, 6]: 0.56 µM
- EC50 [2, 7]: > 7.37 µM
SMILES: CS(=O)(=O)CCNCc1ccc(-c2ccc3ncnc(Nc4ccc(OCc5cccc(F)c5)c(Cl)c4)c3c2)o1 [Lapatinib]

- IC50 ([5]; Plasmodium falciparum): 0.191 ± 0.062 µM
SMILES: CC[C@@]1(O)C(=O)OCc2c1cc1n(c2=O)Cc2c-1nc1cc3c(cc1c2CN1CCN(C)CC1)OCCO3 [Lurtotecan]

- EC50 [1, 6]: 0.01 µM
- EC50 [2, 7]: 0.02 µM
SMILES: CN(Cc1cnc2nc(N)nc(N)c2n1)c1ccc(C(=O)N[C@@H](CCC(=O)O)C(=O)O)cc1 [Methotrexate]

- EC50 [1, 6]: < 0.0003 µM
- EC50 [2, 7]: < 0.0003 µM
SMILES: CN(C)c1ccc2nc3ccc(=[N+](C)C)cc-3sc2c1 [Methylene blue]

- EC50 [1, 6]: 0.35 µM
SMILES: CO[C@@H]1[C@H](N(C)C(=O)c2ccccc2)C[C@H]2O[C@]1(C)n1c3ccccc3c3c4c(c5c6ccccc6n2c5c31)C(=O)NC4 [Midostaurin]

- EC50 [1, 6]: 0.7 µM
- EC50 [2, 7]: > 12.8 µM
SMILES: O=c1[nH]c2ccccc2n1C1CCN(CCCC(c2ccc(F)cc2)c2ccc(F)cc2)CC1 [Pimozide]

- IC50 ([5]; Plasmodium falciparum): 0.011 ± 0.001 µM
SMILES: COc1ccc(OC)c(Cc2cnc3nc(N)nc(N)c3c2C)c1 [Piritrexim]

- IC50 [5]: 1.13 ± 0.146 µM
SMILES: CCN(CC)CCN(Cc1ccc(-c2ccc(C(F)(F)F)cc2)cc1)C(=O)Cn1cc(Cc2cnn(C)c2)c(=O)nc1SCc1ccc(F)cc1 [SB-435495]

- EC50 [1, 6]: 2.71 µM
- EC50 [2, 7]: 0.88 µM
SMILES: CNC(=O)c1cc(Oc2ccc(NC(=O)Nc3ccc(Cl)c(C(F)(F)F)c3)cc2)ccn1 [Sorafenib]

- EC50 [1, 6]: 0.04 µM
- EC50 [2, 7]: 0.02 µM
SMILES: CN1CCN(CC/C=C2/c3ccccc3Sc3ccc(S(=O)(=O)N(C)C)cc32)CC1 [Thiothixene]
